The text below walks through data of patent US6162823A, “LTA4 hydrolase inhibitors” (G.D. Searle & Co., priority 1997, dated 2000).

What is called IC50 is the concentration that inhibits the measured activity by half.

Where a name gives a salt, the structure may show the parent alone. Read-outs that look alike come from different tables or passages of the source. Where only a bound is given, the exact number is not on record here.

In test [1] the target is T1, recombinant human LTA4 hydrolase (rhLTAH) (Homo sapiens, UniProt P09960).
T1 construct: made in house; host or cells: Spodoptera frugiperda Sf-9 cells (baculovirus)
T1 sequence (P09960 1-611): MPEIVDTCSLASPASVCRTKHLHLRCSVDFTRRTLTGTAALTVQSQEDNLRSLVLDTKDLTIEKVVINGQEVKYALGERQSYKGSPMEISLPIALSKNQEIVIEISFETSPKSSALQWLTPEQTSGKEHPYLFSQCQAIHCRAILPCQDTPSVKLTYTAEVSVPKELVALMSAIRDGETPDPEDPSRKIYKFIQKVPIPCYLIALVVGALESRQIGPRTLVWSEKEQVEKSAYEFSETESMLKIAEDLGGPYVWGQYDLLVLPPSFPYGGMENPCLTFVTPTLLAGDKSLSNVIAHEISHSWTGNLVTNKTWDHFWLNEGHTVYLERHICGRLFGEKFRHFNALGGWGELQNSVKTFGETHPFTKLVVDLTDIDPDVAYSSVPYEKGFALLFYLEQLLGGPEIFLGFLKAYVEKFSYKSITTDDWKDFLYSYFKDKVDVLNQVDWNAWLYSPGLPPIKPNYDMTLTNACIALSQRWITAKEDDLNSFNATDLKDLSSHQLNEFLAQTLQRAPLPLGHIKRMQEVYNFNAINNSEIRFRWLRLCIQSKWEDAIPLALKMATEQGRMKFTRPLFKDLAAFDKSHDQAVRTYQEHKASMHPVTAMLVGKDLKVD
The test can be described thus: Recombinant Human LTA Hydrolase Assay for LTA Hydrolase Inhibitor Activity. Type of test: biochemical. As to conditions: 10 min preincubation with 250 ng enzyme, LTA4 substrate, room temperature, pH 7.4.
Method: Compounds of the present invention were tested for LTA hydrolase inhibitor activity against recombinant human LTA hydrolase (rhLTAH).
One or more predetermined amounts of a compound of the invention were incubated in assay buffer (0.1 M potassium phosphate, 5 mg/ml fatty acid free BSA, 10% DMSO, pH 7.4) for 10 minutes at room temperature with 250 ng of recombinant hLTA4 H to allow binding, if any, between the enzyme and inhibitor. […] LTA4 (free acid) was thawed and diluted in assay buffer (minus DMSO) to a concentration of 350 ng/ml and 25 μl (8ng) of LTA4 substrate was added to the reaction mixture (total volume of reaction mixture=200 μl at time zero. Each reaction was carried out at room temperature for 10 minutes. The reaction was stopped by diluting 25 μl of the reaction mixture with 500 μl of the assay buffer without DMSO. LTA4 was quantified in the diluted sample by a commercially available enzyme-linked immunoassay [Caymen Chemical Col. Ann Arbor, Mich.] using the method recommended in the manufacturer's instructions and compared to the amount of LTA4 produced in a negative control (i.e., essentially identical conditions except without addition of an inhibitor compound). The IC50 was routinely calculated from the data produced.

Test [2] has as its system LTB4 production by calcium ionophore stimulated mouse blood. Briefly: Murine ex vivo LTB4 inhibition (calcium ionophore stimulated mouse blood after oral dosing). The class given is in vivo. As to conditions: for inhibition at 10 mg/kg: read-out: Murine Ex Vivo LTB4 Inhibition, % I LTB4 at 1 hour after administration. As to the method: The compounds were administered by oral garage to adult male outbred mice weighing approximately 20-30 gm at a dose of 10 mg/kg body weight. […] The mixture was incubated for 10 minutes at 37° C. in a humidified incubator. The reaction was terminated by centrifugation (833 g. 10 minutes at 4° C.). Supernatant were analyzed for LTB4 and thromboxane by commercially available enzyme-linked immunoassays [Caymen Chemical Co., Ann Arbor, Mich.] in accordance with the manufacturer's instructions. The percent inhibition was determined by comparison to animals treated identically except that the solution administered by oral gavage was devoid of inhibitor compound.

Test [3] relates to calcium ionophore-induced LTB4 production in human blood. Briefly: Inhibition of calcium ionophore-induced LTB4 production in human blood (HWB). The class given is cell-based. Particulars: read-out: Inhibition of Calcium Ionophore-induced LTB4 Production in Human Blood (HWB) IC50.
Method: LTB4 and Thromboxane Production by Calcium Ionophore Stimulated Human Blood for LTB4 Hydrolase Inhibitor Activity
Human blood, collected in heparin-containing Vacutainer tubes, was diluted 1:4 with RPMI-1640 media and 200 μl of the diluted blood was added into each of a 96-well microtiter plate. […] After incubating for 15 minutes at 37° C. in a humidified incubator, calcium ionophore A13187 (Sigma Chemical Co., St. Louis, Mo.) was added to a final concentration of 20 mcg/ml and the incubation continued under the same conditions for an additional 10 minutes to allow LTB4 formation. The reaction was terminated by centrifugation (833 g, 10 minutes at 4° C.) and supernatant were analyzed for LTB4 and thromboxane by commercially available enzyme-linked immunoassays (Caymen Chemical Co., Ann Arbor, Mich.) according to the manufacturer's instructions. The IC50 of each test compound was determined from the amount of inhibition of LTB4 production as compared to an essentially identical assay in which no inhibitor compound was present.
For test [4], the system named is LTA4 hydrolase. As to conditions: cited from earlier work.
Setting [5] is: mouse, oral gavage, 10 mg/kg (* indicates 50 mg/kg), 1 hour after administration, ionophore A23187 20 mcg/ml.
Setting [6] is: human whole blood diluted 1:4, 15 min preincubation at 37° C., ionophore 20 mcg/ml, 10 min.

For `CN(CCCOc1ccc(Cc2cccs2)cc1)CCC(=O)NS(=O)(=O)c1ccccc1` [Example 9], the IC50 in test [1] was under 0.5 nM; in test [3] (setting [6]), 79 nM. The inhibition at 10 mg/kg in test [2] (setting [5]) came out at 87%.
In the case of `CN(CCCOc1ccc(Cc2cccs2)cc1)CCC(=O)NS(C)(=O)=O` [Example 10, N-(Methylsulfonyl)-3-[methyl[3-[4-[(2-thienyl)-methyl]phenoxy]propyl]amino]propanamide], the IC50 in test [1] turned out to be 0.5 nM; in test [3] (setting [6]), 61 nM. Further, the inhibition at 10 mg/kg in test [2] (setting [5]) worked out at 93%.
As for `CCN(CCCOc1ccc(Cc2cccs2)cc1)CCC(=O)NS(C)(=O)=O` [Example 11, 3-[Ethyl[3-[4-[(2-thienyl)methyl]phenoxy]propyl]-amino]-N-(methylsulfonyl)propanamide monohydrochloride], the values for the half-inhibitory concentration (IC50) in test [1] and in test [3] (setting [6]) were 33 nM and 66 nM, respectively. The inhibition at 10 mg/kg in test [2] (setting [5]) was determined as 86%.
`CC(C)N(CCCOc1ccc(Cc2cccs2)cc1)CCC(=O)NS(C)(=O)=O` [Example 12, 3-[(1-methylethyl)[3-[4-[(2-thienyl)methyl-]phenoxy]propyl]-amino]-N-(methylsulfonyl)-propanamide monohydrochloride]: the half-maximal inhibitory concentration (IC50) in test [1] was 12 nM; in test [3] (setting [6]), 80 nM. Further, the inhibition at 10 mg/kg in test [2] (setting [5]) amounted to 68%.
In the case of `CC(C)N(CCCOc1ccc(Cc2cccs2)cc1)CCC(=O)NS(=O)(=O)c1ccccc1` [Example 13, 3-[(1-methylethyl)[3-[4-[(2-thienyl)methyl-]phenoxy]propyl]amino]-N-(phenylsulfonyl)-propanamide, monohydrochloride], the half-inhibitory concentration (IC50) in test [1] was 2.3 nM; in test [3] (setting [6]), 40 nM.
As to `CCN(CCCOc1ccc(Cc2ccsc2)cc1)CCC(=O)NS(=O)(=O)c1ccccc1` [Example 14, monohydrate], the half-maximal inhibitory concentration (IC50) in test [1] was found to be 11 nM; in test [3] (setting [6]), 82 nM. Further, the inhibition at 10 mg/kg in test [2] (setting [5]) is 87%.
For `CCN(CCCOc1ccc(Cc2ccsc2)cc1)CCC(=O)NS(C)(=O)=O` [Example 15, 3-[Ethyl[3-[4-[(3-thienyl)methyl]phenoxy]propyl]-amino]-N-(methylsulfonyl)propanamide monohydrochloride], the inhibition at 10 mg/kg in test [2] (setting [5]) came out at 79%. For the same molecule, the 50% inhibitory concentration (IC50) in test [3] (setting [6]) stood at 230 nM.
Consider `CC(C)N(CCCOc1ccc(Cc2ccsc2)cc1)CCC(=O)NS(C)(=O)=O` [Example 16], for which the IC50 turned out to be 450 nM in test [1] and 200 nM in test [3] (setting [6]). Besides, the inhibition at 10 mg/kg in test [2] (setting [5]) amounted to 85%.
Turning to `CN(CCCOc1ccc(Cc2ccsc2)cc1)CCC(=O)NS(=O)(=O)c1ccccc1` [Example 17, monohydrochloride], the half-inhibitory concentration (IC50) came to 0.5 nM in test [1] and 130 nM in test [3] (setting [6]). In test [2] (setting [5]), the inhibition at 10 mg/kg is 93%.
On to `CN(CCCOc1ccc(Cc2ccsc2)cc1)CCC(=O)NS(C)(=O)=O` [Example 18, N-(methylsulfonyl)-3-[methyl[3-[4-[(3-thienyl)methyl]phenoxy]propyl]-amino]propanamide], for which the 50% inhibitory concentration (IC50) in test [1] was determined as 20 nM; in test [3] (setting [6]), 190 nM. The inhibition at 10 mg/kg in test [2] (setting [5]) is 94%.
Turning to `CC(C)N(CCCOc1ccc(Cc2ccsc2)cc1)CCC(=O)NS(=O)(=O)c1ccccc1` [Example 21], the IC50 in test [1] came out at 90 nM; in test [3] (setting [6]) it was 150 nM. For the same molecule, the inhibition at 10 mg/kg in test [2] (setting [5]) amounted to 60%.
`CN(CCCOc1ccc(Cc2ccccc2)cc1)CCC(=O)NS(=O)(=O)c1ccccc1` [Example 22]: the IC50 in test [1] was 1 nM; in test [3] (Homo sapiens), 75 nM. Besides, the inhibition at 10 mg/kg in test [2] (Mus musculus, po, 1 h) was determined as 94%.
As for `CN(CCCOc1ccc(Cc2ccccc2)cc1)CCC(=O)NS(C)(=O)=O` [Example 23], the values for the IC50 in test [1] and in test [3] (setting [6]) were 1.3 nM and 70 nM, respectively. Besides, the inhibition at 10 mg/kg in test [2] (setting [5]) stood at 100%.
With `CS(=O)(=O)NC(=O)CCN(CCCOc1ccc(Cc2ccccc2)cc1)C1CC1` [Example 24], the IC50 in test [1] turned out to be 2160 nM; in test [3] (setting [6]), 2710 nM.
Take `CC(C)(C)N(CCCOc1ccc(Cc2ccccc2)cc1)CCC(=O)NS(C)(=O)=O` [Example 25]: the IC50 in test [1] worked out at 100 nM; in test [3] (setting [6]) it was 110 nM. Further, the inhibition at 10 mg/kg in test [2] (setting [5]) was found to be 45%.
In the same order, the values of `CC(C)N(CCCOc1ccc(Cc2ccccc2)cc1)CCC(=O)NS(C)(=O)=O` [Example 26] are 160 nM, 220 nM and 81%.
For the molecule `CC(C)N(CCCOc1ccc(Cc2ccccc2)cc1)CCC(=O)NS(C)(=O)=O` [Example 27], the half-inhibitory concentration (IC50) was found to be 47 nM in test [1] and 100 nM in test [3] (setting [6]). Moreover, in test [2] (setting [5]), the “Murine Ex Vivo LTB4 Inhibition, % I LTB4 at 1 hour after administration” value (“Murine Ex Vivo LTB4 Inhibition, % I LTB4” for short) is on record as 44%.
As to `CCN(CCCOc1ccc(Cc2ccccc2)cc1)CCC(=O)NS(C)(=O)=O` [Example 28], the IC50 in test [1] amounted to 540 nM; in test [3] (setting [6]), 180 nM. The inhibition at 10 mg/kg in test [2] (setting [5]) was 89%.
Consider `CCN(CCCOc1ccc(Cc2ccccc2)cc1)CCC(=O)NS(=O)(=O)c1ccccc1` [Example 29], for which the half-maximal inhibitory concentration (IC50) in test [1] worked out at 79 nM; in test [3] (setting [6]) it was 130 nM. In addition, the inhibition at 10 mg/kg in test [2] (setting [5]) amounted to 65%.
For the molecule `CC(C)C[C@H](NC(=O)[C@@H](O)[C@H](N)Cc1ccccc1)C(=O)O` [bestatin], in test [4], the “LTA4 hydrolase inhibitory activity” value is listed as “exhibit LTA4 hydrolase inhibitory activity”.
As to `C[C@H](CS)C(=O)N1CCC[C@H]1C(=O)O` [captopril], the “LTA4 hydrolase inhibitory activity” value in test [4] is “exhibit LTA4 hydrolase inhibitory activity”.
Regarding “N-(methylsulfonyl)-3-[propyl[3-[4-[(3-thienyl)methyl]phenoxy]propyl]-amino]propanamide [Example 20]”, the concentration for half-maximal inhibition (IC50) in test [1] and in test [3] (setting [6]) was 150 nM each time. In addition, the “Murine Ex Vivo LTB4 Inhibition, % I LTB4” value in test [2] (setting [5]) was determined as 56%.
With “N-(phenylsulfonyl)-3-[propyl[3-[4-[(3-thienyl)methyl]phenoxy]propyl]-amino]propanamide monohydrochloride [Example 19]”, the IC50 in test [1] came to 90 nM; in test [3] (setting [6]), 75 nM. The “Murine Ex Vivo LTB4 Inhibition, % I LTB4” value in test [2] (setting [5]) worked out at 45%.
